# From patent US8933290B2, “Mesh implant” (Sofradim Production SAS, priority 2007, dated 2015)
# System: classical pathway of the complement system
# Assay: Anti-complement activity, CH50 hemolytic assay in total human serum
# Type: biochemical
# Conditions: in solution, sheep erythrocytes
# Procedure: The anti-complement activity of fucans was tested via a CH50 test, a standard hemolytic assay in total human serum. Complement activation in human serum was induced by the introduction of sheep erythrocytes coated with rabbit antibodies and then recognized as foreign elements. […] The amount of released hemoglobin was then determined by an optical density (OD) measurement at about 414 nm. The human serum dilution was adjusted for a known amount of erythrocytes, in order to lyse about 50% of the red blood cells (CH50). In order to check the impact of the fucan on the complement activation in solution, the fucan was added with the sheep erythrocytes. […] Heparin (heparin […] 173 UI/mg, Choay-Sanofi) and fucan […] RED synthesized in the Laboratoire de Recherche sur les Macromolecules (LRM, CNRS UMR 7540, France) were also tested instead of fucan.
substance,measurement,value
heparin [heparin H108],"IC50 (median inhibition concentration), anti-complement activity",about 30 μg/mL
